Test results as given in the supplement of paper PMC10307832.

Columns and labels:
Assay in all cases: relative viability (nuclei count vs DMSO), 5 days (fraction); higher = more cells survive
[1] = compound: CC(C)C[C@@H](C(=O)N[C@H](C(=O)OC1CCCC1)c1ccccc1)[C@H](O)C(=O)NO [Tosedostat] + N=C(N)NC(=N)NCCc1ccccc1 [Phenformin] (partner 250 µM)
How it was run: (§1)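 Lung cancer cell lines were pin-tool dosed in 1536-well plates on the day after seeding, with either a lone drug or a fixed anchor-drug dose plus five library-drug doses (not always all listed) in √10 steps. Nuclei were counted on 4× images after 5 days. Relative viability is the ratio of treated-well to vehicle-well nuclei counts, with each value a median of duplicate plates.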

[2] = compound: CC1=NN=C(O1)C2=NN=C(C=C2)N3CCC(CC3)OC4=C(C=CC(=C4)F)Cl + CCNC(=O)c1noc(-c2cc(C(C)C)c(O)cc2O)c1-c1ccc(CN2CCOCC2)cc1 [Luminespib] (partner 0.01 µM)
How it was run: as §1

[3] = compound: CC1=NN=C(O1)C2=NN=C(C=C2)N3CCC(CC3)OC4=C(C=CC(=C4)F)Cl + Cc1nc(NC(=O)N2CCC[C@H]2C(N)=O)sc1-c1ccnc(C(C)(C)C(F)(F)F)c1 [Alpelisib] (partner 2 µM)
How it was run: as §1

[4] = compound: CC(C)C[C@@H](C(=O)N[C@H](C(=O)OC1CCCC1)c1ccccc1)[C@H](O)C(=O)NO [Tosedostat] + CC1(C)CCC(c2ccc(Cl)cc2)=C(CN2CCN(c3ccc(C(=O)NS(=O)(=O)c4ccc(N[C@H](CCN5CCOCC5)CSc5ccccc5)c(S(=O)(=O)C(F)(F)F)c4)cc3)CC2)C1 [Navitoclax] (partner 0.5 µM)
How it was run: as §1

With SW 1573 the relative viability ([1]; first compound 0.02 µM) was 0.417, the relative viability ([1]; first compound 0.06325 µM) was 0.364 and the relative viability ([1]; first compound 0.2 µM) was 0.302. The relative viability ([1]; first compound 0.6325 µM) was 0.336, the relative viability ([1]; first compound 2 µM) was 0.342 and the relative viability ([2]; first compound 0.253 µM) was 0.184. The relative viability ([2]; first compound 0.8 µM) was 0.204, the relative viability ([2]; first compound 2.53 µM) was 0.264 and the relative viability ([2]; first compound 8 µM) was 0.2. The relative viability ([3]; first compound 0.253 µM) was 0.753, the relative viability ([3]; first compound 0.8 µM) was 0.722 and the relative viability ([3]; first compound 2.53 µM) was 0.701. The relative viability ([3]; first compound 8 µM) was 0.791, the relative viability ([4]; first compound 0.02 µM) was 1.06 and the relative viability ([4]; first compound 0.06325 µM) was 1.05. It also gave a relative viability ([4]; first compound 0.2 µM) of 1.06, a relative viability ([4]; first compound 0.6325 µM) of 0.796 and a relative viability ([4]; first compound 2 µM) of 0.959.
